Test results published in paper PMC11596549 (Metabolites, 2024).
Where two headings read alike, the source gives them in different places.

Key:
[1] = cited from earlier work
[2] = Pharmacokinetic drug interaction study: aripiprazole single dose alone or after 6-day bupropion pretreatment, LC-MS/MS quantification, non-compartmental analysis; settings: for Vz_F / AUC(0-inf) / CL/F / Cmax / MRT / Tmax / k el: aripiprazole in rat plasma; for Vz_F / AUC(0-t) / AUC(0-inf) / CL/F / Cmax / MRT / Tmax / k el / half-life: mean ± S.D.; for AUC(0-t) / AUC(0-inf) / CL/F / Cmax / MRT / Tmax / k el / half-life: male, Wistar albino, rat, plasma, po, 8 mg/kg; for AUC(0-t): AUC0–30, aripiprazole in rat plasma; for AUC(0-inf): AUC0–∞; for CL/F: Cl_F; for k el: kel; for half-life: t1/2, aripiprazole in rat plasma
Procedure: The suspension was vortex-mixed before each administration. We considered 15 mg ARI a usual therapeutic dose in humans. We multiplied by 10 the dose for rats/kg, but a higher dose of 8 mg/kg body weight (b.w.) was chosen to be suitable for detection in rat plasma, considering the analytical method sensitivity. […] We administered 43 mg/kg b.w. in rats, multiplying the target dose in humans of 300 mg/day by 10.
Twenty-four Wistar albino male rats were divided into two groups.
The collection of blood samples was carried out using the BASi Culex ABC®-Automatic Blood Collector device (BASi, West Lafayette, IN, USA). This facilitated the collection of exact volumes per sample and at exact times post-administration. One day prior to blood sample collection, rats in both groups went through a surgical procedure consisting of a cannula insertion on the femoral vein under intramuscular anesthesia (0.1 mL/100 g b.w. of 1:1 ketamine and xylazine solution), which allowed the device to have access to the rats’ bloodstream. The excess blood drawn on the catheter was returned to the animal along with saline, replacing the volume of blood collected to avoid fluid depletion.
Blood samples, 200 μL each, were automatically drawn in heparinized Eppendorf tubes at 10, 20, 30, 45 min, 1, 1.5, 2, 2.5, 3, 4, 6, 8, 10, 12, 16, 20, 24 and 30 h after ARI single-dose administration in the two experimental groups, and they were immediately placed at −20 °C until further analysis.
Samples were precipitated using acetonitrile. For a 0.1 mL blood sample, 0.3 mL of acetonitrile were added. After the samples were vortex-mixed with IKA Vortex 2 (1000 rpm) for 10 s and centrifuged for 5 min at 10,000 rpm using a Sigma 3-30KS centrifuge (9168× g), the supernatant was injected into the HPLC system.
For concomitant quantification of ARI and D-ARI, a validated reverse-phase liquid chromatography coupled with tandem mass spectrometry (LC-MS/MS) method was developed. The HPLC system Agilent 1100 series with a binary pump, autosampler and thermostat (Agilent Technologies, Santa Clara, CA, USA) was used. The Bruker Ion Trap SL (Bruker Daltonics GmbH, Bremen, Germany) was used for detection. […] Haloperidol spiked into the thawed blood samples was used as an internal standard. The mobile phase consisted of water and 0.3% (m/v) formic acid as eluent A and acetonitrile as eluent B, eluted in a linear gradient (start with 20% acetonitrile, up to 2.5 min 38% acetonitrile, keep at 38% acetonitrile until 4.2 min, re-equilibrate with 20% acetonitrile for 2 min). The injection volume was 5 μL, the flow rate was 1 mL/min and the thermostat temperature was set at 40 °C. The MS detection was in multiple reaction monitoring mode (MRM), and the ESI-MS spectra were recorded in positive ion mode. The following mass transitions were used for analyte quantification: m/z 448 → m/z 285 for ARI, m/z 446 → m/z 285 for D-ARI and m/z 376 → m/z 165 for haloperidol. In these chromatographic conditions, the retention times were 2.80 min for haloperidol, 3.15 min for D-ARI and 3.55 min for ARI, respectively. The concentrations of the two analytes were determined by the instrument data system (QuantAnalysis software, Bruker Daltonics GmbH, Bremen, Germany) using peak area ratios versus concentration ratios of each analyte versus internal standard. The calibration curve model was determined for five calibration series by the linear least squares analysis, weighted (1/y2). […] The matrix effects were measured by comparing the response of the spiked plasma with the response of standards in solvent with the same concentration of ARI and D-ARI as in plasma, and for the measurement of the absolute recovery, a spike and a post-spiked sample were compared [31, 32].

[3] = cited from earlier work; for change of serum concentrations of ARI and AM versus control group / effect on D-ARI concentration / higher mean dose-adjusted concentration of ARI: TDM database; for effect on D-ARI concentration / higher mean dose-adjusted concentration of ARI: ARI combined with the antidepressant
[4] = ARI 8 mg/kg single dose after 6-day BUP 43 mg/kg pretreatment (test, n = 12)
[5] = ARI 8 mg/kg single dose alone (reference, n = 12)
[6] = rats, after BUP repeated doses vs ARI alone
[7] = co-medication, Japanese psychiatric patients

In the case of `O=C1CCc2ccc(OCCCCN3CCN(c4cccc(Cl)c4Cl)CC3)cc2N1` [Aripiprazole], the “absolute oral bioavailability (F)” value [1] is given as 87%, the “binding to plasma proteins” value [1] is given as > 99% and the “time to reach maximum plasma concentration” value [1] is given as 3 to 5 h. For the same molecule, the “time to reach steady-state” value [1] was 14 days, the “elimination t1/2” value ([1]; poor metabolizers (PMs)) was 146 h and the Vz_F [2, 4] was 20.67 ± 27.53 L/kg. It also gave a Vz_F [2, 5] of 121.64 ± 143.94 L/kg, an AUC(0-t) [2, 4] of 5390 ± 2980 ng·h/mL and an AUC(0-t) [2, 5] of 1110 ± 931 ng·h/mL. The AUC(0-inf) [2, 4] was 6310 ± 2980 ng·h/mL, the AUC(0-inf) [2, 5] was 1120 ± 931 ng·h/mL and the CL/F [2, 4] was 26.2 mL/min/kg. It also gave a CL/F [2, 5] of 248 mL/min/kg, a Cmax [2, 4] of 472 ± 217 ng/mL and a Cmax [2, 5] of 240 ± 169 ng/mL. For the same molecule, the MRT [2, 4] was 19.2 ± 27.7 h, the MRT [2, 5] was 4.63 ± 1.78 h and the Tmax [2, 4] was 6.92 ± 2.47 h. For the same molecule, the Tmax [2, 5] was 1.65 ± 0.8 h, the k el [2, 4] was 5e-05 s⁻¹ and the k el [2, 5] was 4.17e-05 s⁻¹. The half-life [2, 4] was 692 ± 1220 min, the half-life [2, 5] was 334 ± 188 min and the “decrease of the apparent systemic clearance of ARI” value [2, 6] was “over 9 fold”. For the same molecule, the “increase of the mean AUC0–30 of ARI” value [2, 6] was 4.85 fold, the “increase of the mean AUC0–∞ of ARI” value [2, 6] was 5.65 fold and the “increase of the mean Cmax of ARI” value [2, 6] was 96.76%. The “increase of the mean Cmax of ARI” value ([2]; rats, after BUP repeated doses vs ARI alone, listed as ARI) was 2 fold.

In the case of `CC(NC(C)(C)C)C(=O)c1cccc(Cl)c1` (centres unmarked) [BUP, Bupropion], the oral bioavailability [1] is listed as 90%.

In the case of `CN(C)CCC[C@@]1(c2ccc(F)cc2)OCc2cc(C#N)ccc21` [Escitalopram], the “change of serum concentrations of ARI and AM versus control group” value (“change … of ARI and AM versus control group” below) ([3]; co-medication) is given as “slight but statistically significant” and the “change of the systemic exposure to the AM” value ([3]; co-medication with ARI) is given as “did not significantly change”.

For `CNCC[C@H](Oc1cccc2ccccc12)c1cccs1` [duloxetine], the “increase of the plasma concentrations of ARI” value ([3]; large TDM database, co-medication) is listed as 54.2%.

For `CNCCC(Oc1ccc(C(F)(F)F)cc1)c1ccccc1` (centres unmarked) [fluoxetine], the “effect on D-ARI concentration” value [3] is given as “no effect”, the “higher mean dose-adjusted concentration of ARI” value [3] is given as 45% and the “increase of the C/D ratio of ARI compared to ARI monotherapy” value ([3]; routine TDM service, concomitant use) is given as 44%.

In the case of `Fc1ccc([C@@H]2CCNC[C@H]2COc2ccc3c(c2)OCO3)cc1` [paroxetine], the “effect on D-ARI concentration” value [3] is listed as “no effect”, the “higher mean dose-adjusted concentration of ARI” value [3] is listed as 45% and the “increase of the plasma concentrations of ARI” value [3, 7] is listed as 1.7 fold. For the same molecule, the “increase of the plasma concentrations of the active moiety (AM)” value [3, 7] was 1.5 fold.

For `CN[C@H]1CC[C@@H](c2ccc(Cl)c(Cl)c2)c2ccccc21` [sertraline], the “change … of ARI and AM versus control group” value ([3]; co-medication) is given as “no significant influence”.

In the case of `COc1ccc(C(CN(C)C)C2(O)CCCCC2)cc1` (centres unmarked) [venlafaxine], the “change … of ARI and AM versus control group” value ([3]; co-medication) is listed as “no significant influence”.
